Measurements published in US6989435B2, “Compounds and methods to inhibit or augment an inflammatory response” (Cambridge University Technical Services Ltd., priority 1997, dated 2006).
Positions of bridges follow the written chain, without caps; N, C: chain ends. Non-standard residues stand in square brackets, D forms with d. Residues, ends and D or L forms follow the SMILES beside them. ξ: configuration not given here. ξI = CCC(C)C(N)C(=O)O

Legend:
[1] = Stability against acid hydrolysis; assay type: physicochemical; conditions: pH 2.0 for 2 hrs at 37° C.
Method: (§1) For example, to prepare a peptide 3 derivative, peptide 3(3-12)[MCP-1] was modified according to Jameson et al. (Nature, 368, 744 (1994)), which yielded CRD-Cys13leu4ile11peptide 3[MCP-1] (FIG. 4). CRD-Cys13eu4ile11peptide 3[MCP-1], which had very similar properties to peptide 3(1-12)[MCP-1] […] CRD-Cys13leu4ile11peptide 3[MCP-1] was also resistant to hydrolysis in vivo and allowed therapeutically useful plasma concentrations to be achieved (>10 μM 24 hours after a single intraperitoneal dose of 1 mg of CRD-Cys13leu4ile11peptide 3[MCP-1] in 250 μl saline).

trypsin = test: Stability against enzymatic destruction; assay type: in vitro ADME; conditions: 5 units trypsin for 2 hrs at 37° C.
Method: as §1

[2] = Plasma concentration after a single intraperitoneal dose; assay type: in vivo; conditions: ip, 24 hours after a single intraperitoneal dose of 1 mg in 250 μl saline
Method: as §1

With `CCC(C)C1NC(=O)[C@@H](CCC(N)=O)NC(=O)[C@H](N)CSSC[C@H](C(=O)O)NC(=O)[C@@H](CC(C)C)NC(=O)[C@@H](CC(=O)O)NC(=O)[C@H]2CCCN2C(=O)[C@@H](CCCCN)NC(=O)[C@@H](CCC(N)=O)NC(=O)[C@@H](CCCCN)NC(=O)[C@@H](Cc2c[nH]c3ccccc23)NC1=O` (stereo partly drawn) [CRD-Cys13Leu4ile11peptide 3] (H-[dC][dQ][ξI][dW][dK][dQ][dK][dP][dD][dL][dC]-OH; disulfide 1-11; N-terminus and C-terminus assumed) the “degradation by acid hydrolysis” value [1] was < 10%, the “stability against enzymatic destruction” value (trypsin) was “stable” and the level at time molar at 24 h [2] was > 10 µM.
